Source: ChEMBL document CHEMBL5442379, “ASAP - SARS-CoV-2 nsp3 macrodomain single point” (2024)

Molecular target: Replicase polyprotein 1ab (Severe acute respiratory syndrome coronavirus 2) (UniProt P0DTD1)
Description: Functional biochemical assay to identify treatments for viral infectious disease that targets SARS-COV-2 nsp3 macrodomain, whereby the mechanism of action displaces an ADP-Ribose modified peptide from the binding site. Utilizing a time-resolved fluorescence method to measure binding by reading the emitted fluorescence intensity in two wavelengths.

Cc1cc(NCc2cnc3c(c2)NC(=O)CO3)cnc1C
inhibition (Concentration 50.0 uM, Number of replicates 2.0, Standard deviation 8.489 %): 4.53%

CC(C)[C@@H](CO)[C@@H](Nc1ncnc2[nH]ccc12)C(C)C
inhibition (Concentration 49.75 uM, Number of replicates 2.0, Standard deviation 2.34 %): 6.65%
inhibition (Concentration 99.5 uM, Number of replicates 2.0, Standard deviation 2.712 %): 13.1%

NC1(C(=O)N(CCC(=O)N2CCNCC2)Cc2cccc(Cl)c2)CC(F)(F)C1
inhibition (Concentration 49.75 uM, Number of replicates 2.0, Standard deviation 0.286 %): -3.48%
inhibition (Concentration 99.5 uM, Number of replicates 2.0, Standard deviation 3.805 %): -1.17%

Brc1ccc(-n2nnnc2Sc2ncnc3[nH]ccc23)cc1
inhibition (Concentration 50.0 uM, Number of replicates 2.0, Standard deviation 10.96 %): 12.7%

C[C@@H]1[C@H](O)CCCN1C(=O)c1ccc(NC(=O)Nc2ccccc2)cc1
inhibition (Concentration 49.75 uM, Number of replicates 2.0, Standard deviation 0.457 %): -2.96%
inhibition (Concentration 99.5 uM, Number of replicates 2.0, Standard deviation 5.068 %): -2.72%

c1ccc(-c2cc(CNc3ncnc4[nH]ccc34)on2)cc1
inhibition (Concentration 50.0 uM, Number of replicates 2.0, Standard deviation 8.772 %): 7.14%
inhibition (Concentration 100.0 uM, Number of replicates 2.0, Standard deviation 1.845 %): -3.46%

COc1ccccc1C[C@@H](Nc1ncnc2[nH]ccc12)C(C)C
inhibition (Concentration 49.75 uM, Number of replicates 2.0, Standard deviation 1.888 %): 31.7%
inhibition (Concentration 99.5 uM, Number of replicates 2.0, Standard deviation 1.108 %): 48.5%

Cc1[nH]c2ncnc(NC(=O)[C@@H]3CCO[C@@H]3C)c2c1C
inhibition (Concentration 50.0 uM, Number of replicates 2.0, Standard deviation 0.696 %): 35.1%

Cn1nc(C(=O)O)cc1C(=O)N1CCC(c2ccn3ncc(C(=O)N4CCCCC4)c3c2)CC1
inhibition (Concentration 49.75 uM, Number of replicates 2.0, Standard deviation 5.569 %): 34.2%
inhibition (Concentration 99.5 uM, Number of replicates 2.0, Standard deviation 2.729 %): 52.7%

Cc1n[nH]cc1CN(C)C(=O)c1ccc(NC(=O)Nc2ccccc2)cc1
inhibition (Concentration 49.75 uM, Number of replicates 2.0, Standard deviation 4.474 %): -3.77%
inhibition (Concentration 99.5 uM, Number of replicates 2.0, Standard deviation 2.774 %): -0.031%

O=C(CNc1ncnc2[nH]ccc12)N1CCc2ccccc21
inhibition (Concentration 50.0 uM, Number of replicates 2.0, Standard deviation 7.793 %): 1.19%

c1ccc(-c2nc(CNc3cccnc3)cs2)nc1
inhibition (Concentration 50.0 uM, Number of replicates 2.0, Standard deviation 0.432 %): -9.87%

FC(F)(F)Oc1ccccc1-c1ncnc2[nH]ccc12
inhibition (Concentration 50.0 uM, Number of replicates 2.0, Standard deviation 5.274 %): -3.37%
inhibition (Concentration 100.0 uM, Number of replicates 2.0, Standard deviation 3.913 %): 2.12%

CC(C)c1nc([C@@H](C)Nc2ncnc3nc[nH]c23)cs1
inhibition (Concentration 49.75 uM, Number of replicates 2.0, Standard deviation 2.607 %): 2.65%
inhibition (Concentration 99.5 uM, Number of replicates 2.0, Standard deviation 0.232 %): 3.07%

c1ccc2sc(CCNc3ncnc4nc[nH]c34)nc2c1
inhibition (Concentration 50.0 uM, Number of replicates 2.0, Standard deviation 2.493 %): -4.21%

C[C@]1(C(=O)N(CCC(=O)N2CCNCC2)Cc2cccc(Cl)c2)CCCN1
inhibition (Concentration 49.75 uM, Number of replicates 2.0, Standard deviation 5.247 %): 1.4%
inhibition (Concentration 99.5 uM, Number of replicates 2.0, Standard deviation 0.402 %): 2.13%

O=C(O)c1sccc1C(=O)N1CCC(c2ccn3ncc(C(=O)N4CCCCC4)c3c2)CC1
inhibition (Concentration 49.75 uM, Number of replicates 2.0, Standard deviation 1.624 %): 55.5%
inhibition (Concentration 99.5 uM, Number of replicates 2.0, Standard deviation 1.425 %): 71.5%

CN(C(=O)c1ccc(NC(=O)Nc2ccccc2)cc1)[C@@H]1CN2CCC1CC2
inhibition (Concentration 49.75 uM, Number of replicates 2.0, Standard deviation 0.826 %): -4.01%
inhibition (Concentration 99.5 uM, Number of replicates 2.0, Standard deviation 1.597 %): 2.77%

O=S(=O)(NC[C@H]1CCOC1)c1cn2c(n1)CCCC2
inhibition (Concentration 50.0 uM, Number of replicates 2.0, Standard deviation 7.062 %): -3.2%

O=C(O)c1ccc(C(=O)N2CCC(c3ccn4ncc(C(=O)N5CCCCC5)c4c3)CC2)o1
inhibition (Concentration 49.75 uM, Number of replicates 2.0, Standard deviation 3.483 %): 40.5%
inhibition (Concentration 99.5 uM, Number of replicates 2.0, Standard deviation 5.512 %): 58.1%

Cn1nc(C(=O)N2CCC(c3ccn4ncc(C(=O)N5CCCCC5)c4c3)CC2)cc1C(=O)O
inhibition (Concentration 49.75 uM, Number of replicates 2.0, Standard deviation 1.938 %): 42.7%
inhibition (Concentration 99.5 uM, Number of replicates 2.0, Standard deviation 2.395 %): 59.7%

Cc1nn(C)c(C)c1[C@H]1COCCN1c1ncnc2[nH]ccc12
inhibition (Concentration 49.75 uM, Number of replicates 2.0, Standard deviation 4.821 %): -0.137%
inhibition (Concentration 99.5 uM, Number of replicates 2.0, Standard deviation 1.988 %): -0.128%

FC(F)(F)c1ccccc1[C@@H]1CN(c2ncnc3[nH]ccc23)CCO1
inhibition (Concentration 50.0 uM, Number of replicates 2.0, Standard deviation 3.904 %): -5.31%

Cc1cccc([C@@H]2CCCN2c2ncnc3[nH]ccc23)n1
inhibition (Concentration 50.0 uM, Number of replicates 2.0, Standard deviation 4.141 %): 0.182%

Cc1n[nH]nc1C(=O)N1CCC(c2ccn3ncc(C(=O)N4CCCCC4)c3c2)CC1
inhibition (Concentration 49.75 uM, Number of replicates 2.0, Standard deviation 0.483 %): 29.3%
inhibition (Concentration 99.5 uM, Number of replicates 2.0, Standard deviation 0.403 %): 45.8%

O=C(Cc1ccon1)Nc1ncnc2[nH]cnc12
inhibition (Concentration 50.0 uM, Number of replicates 2.0, Standard deviation 0.023 %): -1.61%

Cc1cocc1C(=O)N(CCC(=O)N1CCNCC1)Cc1cccc(Cl)c1
inhibition (Concentration 49.75 uM, Number of replicates 2.0, Standard deviation 0.438 %): 1.4%
inhibition (Concentration 99.5 uM, Number of replicates 2.0, Standard deviation 0.13 %): 0.51%

CCCNC(=O)[C@H]1CCCN(c2ncnc3[nH]ccc23)C1
inhibition (Concentration 50.0 uM, Number of replicates 2.0, Standard deviation 0.927 %): -4.36%

COc1cccc(Cl)c1CNc1ncnc2[nH]ncc12
inhibition (Concentration 50.0 uM, Number of replicates 2.0, Standard deviation 0.519 %): -1.83%

Cc1[nH]ncc1CN(C)C(=O)c1cnn2ccc(C3CCN(C(=O)c4ccccc4)CC3)cc12
inhibition (Concentration 49.75 uM, Number of replicates 2.0, Standard deviation 5.917 %): -1.14%
inhibition (Concentration 99.5 uM, Number of replicates 2.0, Standard deviation 7.587 %): 0.307%

O=C(Nc1ccccc1)Nc1ccc(C(=O)NC2c3cccc(O)c3CC2C(=O)O)cc1 (stereo not given)
inhibition (Concentration 50.0 uM, Number of replicates 2.0, Standard deviation 0.256 %): 99.9%

Fc1ccc(F)c(Sc2ncnc3[nH]ccc23)c1
inhibition (Concentration 50.0 uM, Number of replicates 2.0, Standard deviation 6.588 %): -1.15%

CN(Cc1nccn1Cc1ccccc1)c1ncnc2[nH]ccc12
inhibition (Concentration 50.0 uM, Number of replicates 2.0, Standard deviation 2.394 %): -7.22%
inhibition (Concentration 100.0 uM, Number of replicates 2.0, Standard deviation 1.584 %): -8.82%

CC(C)n1ncnc1CNc1cc2c(=O)nc[nH]c2cn1
inhibition (Concentration 50.0 uM, Number of replicates 2.0, Standard deviation 0.347 %): -1.49%

O=C(c1cccnc1S)N1CCC(c2ccn3ncc(C(=O)N4CCCCC4)c3c2)CC1
inhibition (Concentration 49.75 uM, Number of replicates 2.0, Standard deviation 1.032 %): 32.3%
inhibition (Concentration 99.5 uM, Number of replicates 2.0, Standard deviation 1.028 %): 52.6%

O=C(CCN(Cc1cccc(Cl)c1)C(=O)c1ccc(F)cn1)N1CCNCC1
inhibition (Concentration 49.75 uM, Number of replicates 2.0, Standard deviation 0.987 %): 6.76%
inhibition (Concentration 99.5 uM, Number of replicates 2.0, Standard deviation 1.391 %): 6.74%

O[C@H]1C[C@](CNc2ncnc3[nH]ccc23)(c2ccccc2)C1
inhibition (Concentration 50.0 uM, Number of replicates 2.0, Standard deviation 6.633 %): 11.4%

O=C1C[C@@]2(CCCN(c3ncnc4[nH]ccc34)C2)CN1
inhibition (Concentration 50.0 uM, Number of replicates 2.0, Standard deviation 0.483 %): -2.45%

O=C(CCN(Cc1cccc(Cl)c1)C(=O)[C@@H]1C[C@@H](O)CN1)N1CCNCC1
inhibition (Concentration 49.75 uM, Number of replicates 2.0, Standard deviation 1.654 %): -3.54%
inhibition (Concentration 99.5 uM, Number of replicates 2.0, Standard deviation 6.509 %): 4.74%

Cn1cc([C@@H](Nc2ncnc3[nH]ccc23)c2ccccc2)cn1
inhibition (Concentration 49.75 uM, Number of replicates 2.0, Standard deviation 1.638 %): 20%
inhibition (Concentration 99.5 uM, Number of replicates 2.0, Standard deviation 1.226 %): 39.3%

O=C(N[C@@H]1COCC[C@H]1O)c1cnn2ccc(C3CCN(C(=O)c4ccccc4)CC3)cc12
inhibition (Concentration 49.75 uM, Number of replicates 2.0, Standard deviation 1.335 %): -5.01%
inhibition (Concentration 99.5 uM, Number of replicates 2.0, Standard deviation 2.833 %): -4.48%

O=C(O)[C@H]1CCCCCN1C(=O)c1ncnc2[nH]ccc12
inhibition (Concentration 50.0 uM, Number of replicates 2.0, Standard deviation 6.117 %): 11.8%

CC(C)[C@H]1CNC(=O)CN1c1ncnc2[nH]ccc12
inhibition (Concentration 49.75 uM, Number of replicates 2.0, Standard deviation 0.296 %): 6.84%
inhibition (Concentration 99.5 uM, Number of replicates 2.0, Standard deviation 2.93 %): 17.6%

Cn1nc(NC(=O)c2cc3nccn3c(=O)[nH]2)c2nccnc21
inhibition (Concentration 50.0 uM, Number of replicates 2.0, Standard deviation 4.143 %): -1.91%

CC(C)NC(=O)[C@@H]1CCCN(c2ncnc3[nH]ccc23)C1
inhibition (Concentration 50.0 uM, Number of replicates 2.0, Standard deviation 0.005 %): 1.78%

Cc1c(-c2cnc3nc[nH]c(=O)c3c2)ccc2[nH]ncc12
inhibition (Concentration 49.75 uM, Number of replicates 2.0, Standard deviation 0.542 %): -3.12%
inhibition (Concentration 99.5 uM, Number of replicates 2.0, Standard deviation 2.71 %): -4.36%

O=C(CCN(Cc1cccc(Cl)c1)C(=O)C1CCC(O)CC1)N1CCNCC1 (stereo not given)
inhibition (Concentration 49.75 uM, Number of replicates 2.0, Standard deviation 4.563 %): -4.32%
inhibition (Concentration 99.5 uM, Number of replicates 2.0, Standard deviation 1.877 %): 0.465%

CC(C)[C@@H](CCN(C)C(=O)c1cc2c(s1)CC[C@H](C)C2)Nc1ncnc2[nH]ccc12
inhibition (Concentration 49.75 uM, Number of replicates 2.0, Standard deviation 6.617 %): -9.68%

C[C@@H]1CN(C(=O)c2ccc(NC(=O)Nc3ccccc3)cc2)CC(=O)N1
inhibition (Concentration 49.75 uM, Number of replicates 2.0, Standard deviation 1.912 %): -0.707%
inhibition (Concentration 99.5 uM, Number of replicates 2.0, Standard deviation 5.834 %): 0.29%

O=C(Nc1ccccc1)Nc1ccc(C(=O)Nc2cnnc(Cl)c2)cc1
inhibition (Concentration 49.75 uM, Number of replicates 2.0, Standard deviation 1.096 %): -1.72%
inhibition (Concentration 99.5 uM, Number of replicates 2.0, Standard deviation 2.694 %): -0.19%

Cc1cccc(Cl)c1-n1sc(=O)n(CC2CC2)c1=O
inhibition (Concentration 50.0 uM, Number of replicates 2.0, Standard deviation 1.233 %): 51.9%
